A short description of one test: cells. It is filed as functional, cell-based. The following applies: Homo sapiens, SKNBE2, 72 h.
The test system of test [1] is MDA-MB-231. As to the kind of experiment: Inhibition of colony formation in human MDA-MB-231 cells at 0.1 to 0.4 uM incubated for 3 days followed by incubation in drug-free medium for 12 days by crystal violet staining based assay. The following applies: dose 0.1-0.4 µM, time 3.0 day. The class given is functional, cell-based.
The subject of test [2] is MDA-MB-231. Nature of the test: Induction of apoptosis in human MDA-MB-231 cells assessed as late apoptotic cells at 2 uM measured after 24 hrs by Annexin V-FITC/PI staining based flowcytometry ( Rvb = 5.28%). It is filed as functional.
Test [3] concerns SH-SY5Y. As to the kind of experiment: Induction of apoptosis in human SH-SY5Y cells assessed as viable cells at 1 uM measured after 24 hrs by Annexin V-FITC/PI staining based flowcytometry (reference value: 77.05%). It is filed as functional. As to conditions: read-out: Activity.
Test [4] relates to SH-SY5Y. Nature of the test: Induction of apoptosis in human SH-SY5Y cells assessed as early apoptotic cells at 4 uM measured after 24 hrs by Annexin V-FITC/PI staining based flowcytometry (reference value: 0.82%). The class given is functional.
The subject of test [5] is MDA-MB-231. As to the kind of experiment: Cell cycle arrest in human MDA-MB-231 cells assessed as accumulation of cells at G1 phase at 1 uM measured after 24 hrs by PI staining based flowcytometry method (reference value: 55.32%). It is filed as functional.
Test [6] has as its system MDA-MB-231. As to the kind of experiment: Cell cycle arrest in human MDA-MB-231 cells assessed as accumulation of cells at G2 phase at 1 uM measured after 24 hrs by PI staining based flowcytometry method (reference value: 23.89%). The class given is functional.
The test system of test [7] is SH-SY5Y. As to the kind of experiment: Cell cycle arrest in human SH-SY5Y cells assessed as accumulation of cells at S phase at 2 uM measured after 24 hrs by PI staining based flowcytometry method (reference value: 27.69%). The class given is functional.
Test [8] deals with Fibroblast growth factor receptor (Homo sapiens) (UniProt P22607+P11362+P22455+P21802). As to the kind of experiment: Inhibition of human FGFR at 1 uM. The class given is protein assay.
Fibroblast growth factor receptor (Homo sapiens), sequence (P11362 whole entry, looked up): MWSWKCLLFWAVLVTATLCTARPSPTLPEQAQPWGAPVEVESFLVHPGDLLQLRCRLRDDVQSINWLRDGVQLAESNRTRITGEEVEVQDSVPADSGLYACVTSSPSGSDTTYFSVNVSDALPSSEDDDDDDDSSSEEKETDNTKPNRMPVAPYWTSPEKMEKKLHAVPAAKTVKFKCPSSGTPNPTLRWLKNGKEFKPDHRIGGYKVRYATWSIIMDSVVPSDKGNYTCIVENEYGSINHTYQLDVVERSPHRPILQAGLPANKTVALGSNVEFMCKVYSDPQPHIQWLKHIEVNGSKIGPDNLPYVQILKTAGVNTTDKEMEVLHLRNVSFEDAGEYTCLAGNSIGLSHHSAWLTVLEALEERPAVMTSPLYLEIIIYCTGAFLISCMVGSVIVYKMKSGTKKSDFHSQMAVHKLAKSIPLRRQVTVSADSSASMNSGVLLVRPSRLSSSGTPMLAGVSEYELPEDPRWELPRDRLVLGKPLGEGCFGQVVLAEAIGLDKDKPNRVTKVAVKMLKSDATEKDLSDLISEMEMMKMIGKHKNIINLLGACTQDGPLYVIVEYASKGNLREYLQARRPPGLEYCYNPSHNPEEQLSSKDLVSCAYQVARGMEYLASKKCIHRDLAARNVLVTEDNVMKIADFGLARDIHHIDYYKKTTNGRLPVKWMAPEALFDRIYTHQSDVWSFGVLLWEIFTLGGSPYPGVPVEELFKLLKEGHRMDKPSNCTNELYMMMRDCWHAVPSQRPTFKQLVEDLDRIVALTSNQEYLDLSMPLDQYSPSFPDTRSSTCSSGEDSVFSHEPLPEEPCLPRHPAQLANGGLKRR
Fibroblast growth factor receptor (Homo sapiens), sequence (P21802 whole entry, looked up): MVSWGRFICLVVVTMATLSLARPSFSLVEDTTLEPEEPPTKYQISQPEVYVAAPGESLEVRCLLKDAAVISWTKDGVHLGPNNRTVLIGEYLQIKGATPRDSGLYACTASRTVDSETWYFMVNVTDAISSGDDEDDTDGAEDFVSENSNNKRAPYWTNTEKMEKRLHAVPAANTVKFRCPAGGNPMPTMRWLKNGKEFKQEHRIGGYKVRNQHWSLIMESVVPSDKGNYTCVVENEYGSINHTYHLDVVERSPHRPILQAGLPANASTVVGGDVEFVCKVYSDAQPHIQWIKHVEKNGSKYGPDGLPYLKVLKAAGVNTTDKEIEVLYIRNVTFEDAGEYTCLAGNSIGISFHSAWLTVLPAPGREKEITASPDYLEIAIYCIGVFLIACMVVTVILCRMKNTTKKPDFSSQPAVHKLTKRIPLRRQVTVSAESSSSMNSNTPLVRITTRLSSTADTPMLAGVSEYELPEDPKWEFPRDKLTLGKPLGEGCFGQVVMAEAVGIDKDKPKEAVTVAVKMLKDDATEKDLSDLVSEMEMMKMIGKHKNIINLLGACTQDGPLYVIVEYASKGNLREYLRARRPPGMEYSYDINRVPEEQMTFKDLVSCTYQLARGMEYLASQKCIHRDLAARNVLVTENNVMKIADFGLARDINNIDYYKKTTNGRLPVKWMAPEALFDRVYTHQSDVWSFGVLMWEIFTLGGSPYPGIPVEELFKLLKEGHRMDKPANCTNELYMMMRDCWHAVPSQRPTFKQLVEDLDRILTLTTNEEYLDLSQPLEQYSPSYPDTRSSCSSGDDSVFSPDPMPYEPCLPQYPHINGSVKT
Fibroblast growth factor receptor (Homo sapiens), sequence (P22455 whole entry, looked up): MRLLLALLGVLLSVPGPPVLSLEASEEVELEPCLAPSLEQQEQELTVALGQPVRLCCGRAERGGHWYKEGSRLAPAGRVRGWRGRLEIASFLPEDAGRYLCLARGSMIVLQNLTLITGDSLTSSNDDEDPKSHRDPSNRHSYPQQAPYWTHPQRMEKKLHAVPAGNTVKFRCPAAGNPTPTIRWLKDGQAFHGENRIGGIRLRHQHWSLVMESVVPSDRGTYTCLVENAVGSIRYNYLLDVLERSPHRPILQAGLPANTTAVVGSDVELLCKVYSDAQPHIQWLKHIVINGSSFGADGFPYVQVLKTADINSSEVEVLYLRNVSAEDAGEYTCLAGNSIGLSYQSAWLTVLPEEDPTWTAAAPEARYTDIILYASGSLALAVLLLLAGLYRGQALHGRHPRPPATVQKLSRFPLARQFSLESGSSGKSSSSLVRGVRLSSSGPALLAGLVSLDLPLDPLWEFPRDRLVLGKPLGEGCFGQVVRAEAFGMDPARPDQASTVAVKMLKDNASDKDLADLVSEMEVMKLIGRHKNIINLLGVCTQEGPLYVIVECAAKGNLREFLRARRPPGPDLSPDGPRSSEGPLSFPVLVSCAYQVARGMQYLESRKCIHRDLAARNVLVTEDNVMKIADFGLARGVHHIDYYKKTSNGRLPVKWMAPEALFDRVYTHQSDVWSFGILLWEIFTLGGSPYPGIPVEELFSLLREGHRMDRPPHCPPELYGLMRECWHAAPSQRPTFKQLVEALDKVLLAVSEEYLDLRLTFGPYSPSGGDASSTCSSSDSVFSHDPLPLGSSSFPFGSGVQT
Fibroblast growth factor receptor (Homo sapiens), sequence (P22607 whole entry, looked up): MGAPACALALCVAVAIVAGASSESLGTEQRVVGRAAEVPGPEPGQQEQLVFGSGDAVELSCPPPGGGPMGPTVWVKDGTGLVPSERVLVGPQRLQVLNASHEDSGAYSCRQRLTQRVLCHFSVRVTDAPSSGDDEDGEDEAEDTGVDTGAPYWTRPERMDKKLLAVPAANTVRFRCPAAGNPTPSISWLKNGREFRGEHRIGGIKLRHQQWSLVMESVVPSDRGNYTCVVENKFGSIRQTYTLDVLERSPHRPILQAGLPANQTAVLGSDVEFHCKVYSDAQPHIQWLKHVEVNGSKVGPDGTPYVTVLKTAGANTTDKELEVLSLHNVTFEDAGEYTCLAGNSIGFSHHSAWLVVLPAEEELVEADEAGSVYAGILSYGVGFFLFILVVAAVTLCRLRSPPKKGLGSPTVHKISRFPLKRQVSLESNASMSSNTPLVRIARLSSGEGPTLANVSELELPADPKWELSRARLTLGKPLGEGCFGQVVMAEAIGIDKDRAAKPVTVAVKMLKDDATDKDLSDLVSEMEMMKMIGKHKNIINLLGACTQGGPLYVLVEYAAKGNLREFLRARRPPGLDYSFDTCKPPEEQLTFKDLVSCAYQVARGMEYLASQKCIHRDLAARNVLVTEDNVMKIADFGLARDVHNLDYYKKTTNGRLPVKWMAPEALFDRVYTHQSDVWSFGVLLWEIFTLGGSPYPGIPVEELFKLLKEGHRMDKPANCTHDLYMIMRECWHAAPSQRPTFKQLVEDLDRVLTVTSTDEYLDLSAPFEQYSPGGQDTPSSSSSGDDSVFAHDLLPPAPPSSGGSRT
A short description of test [9]: Potency index, ratio of crizotinib IC50 to test compound IC50 for human SKNBE2 cells harboring wild type ALK assessed as inhibition of cell proliferation measured after 72 hrs by CCK8 assay. It is filed as functional. On the technique in general: Formazan colour is commonly taken as a measure of viable cells.
The subject of test [10] is SH-SY5Y. Nature of the test: Potency index, ratio of ceritinib IC50 to test compound IC50 for human SH-SY5Y cells harboring ALK F1174L mutant assessed as inhibition of cell proliferation measured after 72 hrs by CCK8 assay. The class given is functional.

SMILES strings stand for the structures. The source made the active and inactive calls. No cut-off for these calls is given here.

In general, IC50 refers to the midpoint of a concentration-inhibition curve. A lower IC50 goes with higher potency. A word on the inhibition: it is the percentage by which the read-out fell short of the control.

Description for cells: Antiproliferative activity against human SKNBE2 cells harboring wild type ALK assessed as inhibition of cell proliferation measured after 72 hrs by CCK8 assay

In “cells”, `CC(C)S(=O)(=O)c1ccccc1Nc1nc(Nc2ccc(NC(=O)CCCCCCC(=O)NO)cc2)ncc1Cl` showed an IC50 of 50 nM. In the test with MDA-MB-231 [1], the inhibition entry is “Active”. Also, the Activity with MDA-MB-231 [2] came to 7.72%; in the test with SH-SY5Y [4], 5.34%; with MDA-MB-231 [5], 35.05%; in the test on MDA-MB-231 [6], 32.53%; with SH-SY5Y [7], 20.49%. In addition, the viability at 1 µM in the test with SH-SY5Y [3] came to 87.9%. In addition, the inhibition in test [8] turned out to be 95%. For the same compound, the “Ratio IC50” value (in [9]; in the test with SH-SY5Y [10]) was 3 throughout.

The record behind these values is ChEMBL document CHEMBL4828709, “Discovery of 2,4-pyrimidinediamine derivatives as potent dual inhibitors of ALK and HDAC” (Eur J Med Chem, 2021).
